Here are results for 35 compounds from ChEMBL document CHEMBL5500341, “Discovery of pyrido[3,2-d]pyrimidin-6(5H)-one derivatives as checkpoint kinase 1 (CHK1) inhibitors with potent antitumor efficacy” (Eur J Med Chem, 2024).

Each structure is given as a SMILES string. Calls of active or inactive are those of the source. The calls are words filed in the database; no cut-off is given here. Where only a bound is given, the exact number is not on record here.

In one series the test system is MV4-11. In words: Antiproliferative activity against human MV4-11 cells assessed as inhibition of cell proliferation incubated for 72 hrs by CCK-8 assay. It is filed as functional, cell-based. Conditions: MV4-11, 72 h. Background: Tetrazolium assays rely on reduction of a dye to a coloured formazan, in cell work by metabolically active cells.
Series [1] has as its system HT-29. In words: cells. To be noted: Homo sapiens, HT-29, 72 h.
Description: Antiproliferative activity against human HT-29 cells assessed as inhibition of cell proliferation incubated for 72 hrs by CCK-8 assay
For the next series, the system named is A549. In words: cells. Conditions: Homo sapiens, A549, 72 h.
The subject of the next series is MDA-MB-468. In words: cells. To be noted: Homo sapiens, MDA-MB-468, 72 h.
In a further series the test system is OVCAR-3. In words: cells. Conditions: Homo sapiens, OVCAR-3, 72 h.
Series [2] has as its system HT-29. The series is described as follows: Synergistic antiproliferative activity against human HT-29 cells assessed as inhibition of cell proliferation incubated for 72 hrs in presence of 50 nM gemcitabine by CCK-8 assay. Conditions: HT-29, 72 h. It is filed as functional, cell-based.
A further series has as its system HCT-116. In words: cells. To be noted: Homo sapiens, HCT-116, 72 h.
A further series relates to HL-60. In words: cells. Conditions: Homo sapiens, HL-60, 72 h.
In a further series the test system is A2780. In words: cells. Conditions: Homo sapiens, A2780, 72 h.
Series [3] in a line: Metabolic stability in human liver microsome assessed as half life preincubated with compound for 10 mins followed by NADPH addition and measured up to 60 min by LC-MS/MS analysis. It counts as ADME. To be noted: liver microsomes, time < 70 min. On the technique in general: Liver microsomes are a subcellular fraction often used to study metabolism.
Series [4] is described as follows: Metabolic stability in human microsome assessed as intrinsic clearance preincubated with compound for 10 mins followed by NADPH addition and measured up to 60 min by LC-MS/MS analysis. Conditions: microsomes, time < 70 min, read-out: CLH. It counts as ADME.
Series [5] can be described thus: Metabolic stability in human liver microsome assessed as intrinsic clearance preincubated with compound for 10 mins followed by NADPH addition and measured up to 60 min by LC-MS/MS analysis. It is filed as ADME. To be noted: liver microsomes, time < 70 min, read-out: CLH.
Series [6] concerns the target T1, Serine/threonine-protein kinase Chk1 (Homo sapiens) (UniProt O14757).
T1 sequence (whole entry): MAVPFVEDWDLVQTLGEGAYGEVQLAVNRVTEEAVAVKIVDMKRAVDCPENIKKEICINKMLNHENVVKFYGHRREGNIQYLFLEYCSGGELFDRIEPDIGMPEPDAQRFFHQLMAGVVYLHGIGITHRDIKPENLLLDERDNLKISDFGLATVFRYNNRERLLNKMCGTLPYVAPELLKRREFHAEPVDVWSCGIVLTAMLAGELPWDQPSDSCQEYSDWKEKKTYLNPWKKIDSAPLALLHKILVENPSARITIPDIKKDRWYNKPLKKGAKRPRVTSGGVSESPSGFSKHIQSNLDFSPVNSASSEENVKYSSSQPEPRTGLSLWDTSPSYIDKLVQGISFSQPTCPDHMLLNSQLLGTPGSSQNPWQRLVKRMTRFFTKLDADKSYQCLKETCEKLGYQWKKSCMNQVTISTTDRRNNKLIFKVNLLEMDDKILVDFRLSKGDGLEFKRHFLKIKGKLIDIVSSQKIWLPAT
The series is described as follows: Inhibition of CHK1 in human MV4-11 cells assessed as decrease in S296 phosphorylation at 11.11 nM measured for 24 hrs by Western blot analysis. It is filed as cell-based. (In general: In western blotting, separated proteins are transferred to a membrane and probed.)

For series [7], the system named is HT-29. In words: Synergistic antiproliferative activity against human HT-29 cells assessed as inhibition of cell proliferation incubated for 72 hrs in presence of 50 nM 5-((4-((morpholin-2-ylmethyl)amino)-5-(trifluoromethyl)pyridin-2-yl)amino)pyrazine-2-carbonitrile by CCK-8 assay. It counts as functional, cell-based. Conditions: HT-29, 72 h.
The subject of series [8] is HT-29. In words: Antitumor activity against human HT-29 cells xenografted in female BALB/c mouse assessed as tumor growth inhibition at 30 mg/kg, iv administered once daily for 21 days and measured after 3 days by vernier calipers analysis. To be noted: HT-29, 576 h, read-out: TGI.

Description for A2780: Antiproliferative activity against human A2780 cells assessed as inhibition of cell proliferation incubated for 72 hrs by CCK-8 assay
Description for A549: Antiproliferative activity against human A549 cells assessed as inhibition of cell proliferation incubated for 72 hrs by CCK-8 assay
Description for HCT-116: Antiproliferative activity against human HCT-116 cells assessed as inhibition of cell proliferation incubated for 72 hrs by CCK-8 assay
Description for HL-60: Antiproliferative activity against human HL-60 cells assessed as inhibition of cell proliferation incubated for 72 hrs by CCK-8 assay
Description for MDA-MB-468: Antiproliferative activity against human MDA-MB-468 cells assessed as inhibition of cell proliferation incubated for 72 hrs by CCK-8 assay
Description for OVCAR-3: Antiproliferative activity against human OVCAR-3 cells assessed as inhibition of cell proliferation incubated for 72 hrs by CCK-8 assay

With `CC(C)n1c(=O)ccc2nc(Nc3cnc(C#N)c(N[C@H]4CC[C@@H](N)CC4)c3)ncc21`, in the series with MV4-11, the IC50 stood at 2.19 µM.

Take `CC(C)(C)OC(=O)N1CCC(Nc2cc(Nc3ncc4c(n3)CCC(=O)N4)cnc2C#N)C1` (single isomer, unassigned): the IC50 with HT-29 [1] and with MV4-11 was more than 10 µM in each case.

As to `N#Cc1ncc(Nc2ncc3[nH]c(=O)ccc3n2)cc1N1CCOCC1`, in the series on HT-29 [1], the IC50 was more than 10 µM.

With `N#Cc1ncc(Nc2ncc3c(ccc(=O)n3CC(F)F)n2)cc1NC1CCNCC1`, in the series with MV4-11, the IC50 was more than 10 µM.

Consider `N#Cc1ncc(Nc2ncc3c(ccc(=O)n3CC(F)(F)F)n2)cc1N[C@H]1CC[C@@H](N)CC1`, for which the half-maximal inhibitory concentration (IC50) in the series on MV4-11 is 2.11 µM.

Consider `N#Cc1ncc(Nc2ncc3[nH]c(=O)ccc3n2)cc1N[C@H]1CC[C@@H](N)CC1`, for which the IC50 with HT-29 [1] was more than 10 µM; with MV4-11, 0.0565 µM.

Turning to `N#Cc1ncc(Nc2ncc3c(ccc(=O)n3CC(F)(F)F)n2)cc1N[C@H]1CCNC1`, in the series on MV4-11, the IC50 was more than 10 µM.

For the compound `N#Cc1ncc(Nc2ncc3c(ccc(=O)n3CC(F)F)n2)cc1O[C@@H]1CCNC1`, the IC50 in the series on MV4-11 is more than 10 µM.

Regarding `N#Cc1ncc(Nc2ncc3[nH]c(=O)ccc3n2)cc1N[C@H]1CC[C@H](N)CC1`, the figures for the IC50 with HT-29 [1] and in the series on MV4-11 were more than 10 µM and 0.0394 µM, respectively.

In the series with HT-29 [1], `N#Cc1ncc(Nc2ncc3[nH]c(=O)ccc3n2)cc1NC[C@@H]1CCCNC1` gave an IC50 of more than 10 µM.

`N#Cc1ncc(Nc2ncc3c(ccc(=O)n3CC(F)F)n2)cc1O[C@@H]1CCCNC1`: in the series on MV4-11, the IC50 came to 4.88 µM.

Regarding `N#Cc1ncc(Nc2ncc3[nH]c(=O)ccc3n2)cc1N[C@H]1CCCNC1`, the values for the IC50 in the series with HT-29 [1] and in the series with MV4-11 were more than 10 µM and 0.0195 µM, respectively.

Consider `N#Cc1ncc(Nc2ncc3c(ccc(=O)n3CC(F)F)n2)cc1N[C@H]1CC[C@@H](N)CC1`, for which the half-maximal inhibitory concentration (IC50) in the series with MV4-11 came out at 2.47 µM.

Consider `N#Cc1ncc(Nc2ncc3c(ccc(=O)n3CC(F)F)n2)cc1O[C@H]1CCCNC1`, for which, in the series with MV4-11, the half-maximal inhibitory concentration (IC50) is more than 10 µM.

On to `N#Cc1ncc(Nc2ncc3c(ccc(=O)n3CC(F)F)n2)cc1OCC1CCNCC1`, for which the half-maximal inhibitory concentration (IC50) in the series on MV4-11 was more than 10 µM.

Take `N#Cc1ncc(Nc2ncc3c(ccc(=O)n3CC(F)F)n2)cc1N[C@@H]1CCCNC1`: the IC50 in the series with MV4-11 was determined as 3.63 µM.

As to `CN(C)CCNc1cc(Nc2ncc3c(ccc(=O)n3CC(F)F)n2)cnc1C#N`, in the series with MV4-11, the half-inhibitory concentration (IC50) worked out at 3.81 µM.

As to `N#Cc1ncc(Nc2ncc3c(ccc(=O)n3CC(F)F)n2)cc1NCCN`, the half-inhibitory concentration (IC50) in the series with MV4-11 is more than 10 µM.

As to `N#Cc1ncc(Nc2ncc3c(ccc(=O)n3CC(=O)O)n2)cc1N[C@H]1CC[C@@H](N)CC1`, the IC50 in the series with MV4-11 was more than 10 µM.

Turning to `N#Cc1ncc(Nc2ncc3[nH]c(=O)ccc3n2)cc1NC1CCNC1` (single isomer, unassigned), the half-inhibitory concentration (IC50) with HT-29 [1] and with MV4-11 was more than 10 µM each time.

As for `Cn1c(=O)ccc2nc(Nc3cnc(C#N)c(N[C@H]4CC[C@@H](N)CC4)c3)ncc21`, the concentration for half-maximal inhibition (IC50) in the series on MV4-11 was 0.883 µM.

On to `N#Cc1ncc(Nc2ncc3c(ccc(=O)n3CC(F)F)n2)cc1N[C@H]1CC[C@H](N)CC1`, for which the IC50 with MV4-11 was determined as 2.67 µM.

Take `N#Cc1ncc(Nc2ncc3c(ccc(=O)n3CC(F)F)n2)cc1OC[C@H]1CCCNC1`: the concentration for half-maximal inhibition (IC50) with MV4-11 is more than 10 µM.

As for `N#Cc1ncc(Nc2ncc3c(ccc(=O)n3CC(F)F)n2)cc1NCC1CCCCN1` (configuration not stated), the IC50 in the series with MV4-11 worked out at 3.8 µM.

Turning to `N#Cc1cnc(Nc2cc(NC[C@H]3CNCCO3)c(C(F)(F)F)cn2)cn1` [SRA-737], the IC50 with A549 was more than 10 µM; in the series on MDA-MB-468, more than 10 µM; in the series with OVCAR-3, more than 10 µM; in the series on HT-29 [2], 177 nM; in the series with HCT-116, more than 10 µM; in the series on HT-29 [1], more than 10 µM. In addition, the concentration for half-maximal inhibition (IC50) with HL-60 and in the series on A2780 was more than 10 µM throughout.

For the compound `N#Cc1ncc(Nc2ncc3[nH]c(=O)ccc3n2)cc1NCCN`, the concentration for half-maximal inhibition (IC50) in the series with HT-29 [1] was more than 10 µM.

Consider `N#Cc1ncc(Nc2ncc3c(ccc(=O)n3CC(N)=O)n2)cc1N[C@H]1CC[C@@H](N)CC1`, for which the IC50 in the series with MV4-11 amounted to 8.64 µM.

In the case of `CN1CCC(Oc2cc(Nc3ncc4c(ccc(=O)n4CC(F)F)n3)cnc2C#N)CC1`, in the series with MV4-11, the IC50 is more than 10 µM.

As to `O=C(O)Cc1ccccc1Nc1c(Cl)cccc1Cl` [DICLOFENAC], the half-life in series [3] was 5.14 min. Moreover, in [4], the microsomal CLint was determined as 269 µL/min/mg. In addition, the CLint scaled in [5] amounted to 242 mL/min/kg.

As for `N#Cc1ncc(Nc2ncc3c(n2)CCC(=O)N3)cc1NC1CCNC1` (single isomer, unassigned), the IC50 with HT-29 [1] and in the series on MV4-11 was more than 10 µM in each case.

`N#Cc1ncc(Nc2ncc3c(ccc(=O)n3CC(F)F)n2)cc1OCCCN`: in the series with MV4-11, the IC50 is more than 10 µM.

Regarding `Nc1ccn([C@@H]2O[C@H](CO)[C@@H](O)C2(F)F)c(=O)n1` [GEMCITABINE], the inhibition entry in [6] is “Active”. Besides, the 50% inhibitory concentration (IC50) in the series on HT-29 [7] was 177 nM. The inhibition in vivo at 30 mg/kg in the series on HT-29 [8] is 33.5%.

Consider `CCn1c(=O)ccc2nc(Nc3cnc(C#N)c(N[C@H]4CC[C@@H](N)CC4)c3)ncc21`, for which the half-inhibitory concentration (IC50) in the series on MV4-11 came to 2.23 µM.

As for `N#Cc1ncc(Nc2ncc3c(ccc(=O)n3CC(F)F)n2)cc1NC[C@H]1CCNC1`, the IC50 in the series with MV4-11 was more than 10 µM.

On to `N#Cc1ncc(Nc2ncc3c(ccc(=O)n3CC(F)F)n2)cc1OC1CCNCC1`, for which the IC50 with MV4-11 is more than 10 µM.

By IC50 is commonly meant the midpoint of a concentration-inhibition curve. The half-life is how long it takes for the measured level to halve.
